This experiment deals with MAGP-1. Kind of experiment: MAGP-1 screening method: MAGP-1 mRNA (RT-qPCR, normalized to GAPDH) in treated normal human dermal fibroblasts. The class given is cell-based. To be noted: 48 hours treatment.

Protocol: Normal human dermal fibroblasts (Cascade Biologics) were cultured in 100 mm plates with 10 ml of DMEM with 10% serum and incubated for 24 hours at 37° C. and 10% CO2. After 24 hours, stock solutions of test compounds/plant extracts were made in appropriate solvents (e.g., DMSO). Cells were treated with test material or respective vehicle control diluted in growth medium for 48 hours in a humidified 37° C. incubator with 10% CO2. After incubation, growth medium from each plate was removed and 800 ul of TRIzol Reagent (Invitrogen) was added to the plates. Cell lysates were collected and placed in −80° C. freezer until RNA isolation and analysis.
RNA was isolated by following the manufacturer's procedures. Briefly, the cell lysates were brought to room temperature. 0.2 ml of chloroform per 1 ml of TRIzol® Reagent was added. The tubes were shaken vigorously for 15 seconds and incubated at ambient temperature for 2 to 3 minutes. The samples were centrifuged at 12,000×g for 15 minutes at 2 to 8° C. Following centrifugation; the mixture separated into multiple phases, and RNA remains exclusively in the upper aqueous phase.
The aqueous phase was then transferred to a fresh tube. The RNA was precipitated from the aqueous phase by mixing with 0.5 ml of isopropyl alcohol per 1 ml of TRIzol® Reagent was used for the initial homogenization. Samples were incubated at 15 to 30° C. for 10 minutes and centrifuged at 12,000×g for 10 minutes at 2 to 8° C. […] The sample was mixed by vortexing and centrifuged at 7,500×g for 5 minutes at 2 to 8° C. The RNA pellet was briefly air dried. RNA was dissolved in RNase-free water, and the concentration of total RNA was determined by using Nanodrop (Thermo Scientific, DE).
Reverse Transcription (RT) reactions were conducted in a total volume of 20 μl. The RT mixture was prepared to contain 2 μl 10× TaqMan RT buffer, 4.4 μl 25 mM MgCl2, 4.0 μl dNTP mix, 1.0 μl Random Hexamer, 0.4 μl RNase Inhibitor, 0.5 μl MultiScribe Reverse Transcriptase (50 U/ml), 2.0 μg of RNA, and RNase-free water to make up the final volume of 20 μl. […] After the RT step, the reactions were stored at −20° C. for qPCR analysis.
Quantitative Polymerase Chain Reaction (qPCR) was conducted in a total volume of 20 μl. Applied Biosystems (AB) Universal PCR master mix was used. The mixture was prepared to contain 10 μl of Taqman Universal PCR mix, 1 μl of primer and probe mix, 2 μl of RT product, and 7 μl of deionized water.
The temperature profiles for QPCR were 50° C. for 2 min, and 95° C. for 10 min for 1 cycle, then at 95° C. for 15 sec, and 60° C. for 1 min for 40 cycles. Values for MAGP-1 mRNA were collected along with those for the reference genes GAPDH.

As for `CC(C)CN(Cc1ccc(OS(C)(=O)=O)cc1)S(=O)(=O)c1ccccc1` [Compound of structure I, 4-((N-isobutylphenylsulfonamido)methyl)phenyl methanesulfonate], the “Activity Level (percent increase in mRNA for MAGP-1 vs vehicle control)” value (concentration 0.01%) is on record as “++++ (++++: >80%)”. For the molecule `O=C(O)CCSCCC(=O)O` [Thiodipropionic acid (TDPA), Thiodipropionic acid], the “Activity Level (percent increase in mRNA for MAGP-1 vs vehicle control)” value (concentration 0.001%) was “++ (++: 41-60%)”. For `Cc1cccc(Cc2nc3ccccc3n2CC(=O)N2CCOCC2)c1` [Compound of structure II, 2-{2-[(3-methylphenyl)methyl]-1H-1,3-benzodiazol-1-yl}1-(morpholin-4-yl)ethan-1-one], for the setting “concentration 0.01%”, the “Activity Level (percent increase in mRNA for MAGP-1 vs vehicle control)” value is reported as “++++ (++++: >80%)”. As to “lysine-threonine-phenylalanine-lysine [KTFK]”, where the note is “concentration 0.001%”, the “Activity Level (percent increase in mRNA for MAGP-1 vs vehicle control)” value is listed as “++++ (++++: >80%)”.

The values are drawn from patent publication US10849840B2, “Compositions and methods for stimulation MAGP-1 to improve the appearance of skin” (New Avon LLC, priority 2010, dated 2020).
